Measurements published in PubChem BioAssay (NCI).
Where “and” joins values, the source holds several entries; their conditions need not be identical. Identical values can stand only once.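 Protocol summary: plate cells (96-well), add compound at 5 concentrations, incubate 48 h, interpolate endpoints linearly. GI50 marks 50% less growth. TGI denotes the concentration required for complete inhibition of growth.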

Assays:
Assay in all cases: growth of human tumour cells (NCI), 48 h
SK-MEL-2 melanoma = test system: SK-MEL-2 melanoma
NCI-H23 lung = test system: NCI-H23 lung
U251 CNS = test system: U251 CNS
HT29 colon = test system: HT29 colon
HCT-116 colon = test system: HCT-116 colon
SF-268 CNS = test system: SF-268 CNS
SK-MEL-28 melanoma = test system: SK-MEL-28 melanoma
RPMI-8226 leukemia = test system: RPMI-8226 leukemia
COLO 205 colon = test system: COLO 205 colon
EKVX NSCLC = test system: EKVX NSCLC

Structure (SMILES)	TGI (SK-MEL-2 melanoma)	TGI (NCI-H23 lung)	TGI (U251 CNS) [µM]	TGI (HT29 colon)	TGI (HCT-116 colon)	TGI (SF-268 CNS) [µM]	TGI (SK-MEL-28 melanoma) [µM]	TGI (RPMI-8226 leukemia) [µM]	TGI (COLO 205 colon)	TGI (EKVX NSCLC) [µM]	GI50 (SK-MEL-2 melanoma) [µM]	GI50 (NCI-H23 lung) [µM]	GI50 (U251 CNS) [µM]	GI50 (HT29 colon) [µM]	GI50 (HCT-116 colon) [µM]	GI50 (SF-268 CNS) [µM]	GI50 (SK-MEL-28 melanoma) [µM]	GI50 (RPMI-8226 leukemia) [µM]	GI50 (COLO 205 colon) [µM]	GI50 (EKVX NSCLC) [µM]
N#Cc1cc([N+](=O)[O-])ccc1NC(=O)C(=O)Nc1n[nH]c(N)n1	> 100 µM	> 100 µM	> 100	> 100 µM	> 100 µM	> 100	> 100	> 100	> 100 µM	> 100										
NC(=O)c1ccc(I)c(N)c1	> 100 µM	> 100 µM	> 100	> 100 µM	> 100 µM	> 100	> 100	> 100	> 100 µM	> 100	> 100	> 100	> 100	> 100	> 100	> 100	> 100	> 100	> 100	> 100
Cn1c2ccccc2c2c(-c3ccccc3)[n+]3ccncc3nc21	> 100 µM	> 100 µM	> 100	> 100 µM	> 100 µM	> 100	> 100	> 100	> 100 µM	> 100	55	> 100	47.4	> 100	> 100	51.3	> 100	36.1	29.5	51.4
CC(=O)CNC(=O)OC(C)(C)C	> 100 µM	> 100 µM	> 100	> 100 µM	> 100 µM	> 100	> 100			> 100										
O=C1C2c3[nH]c4ccccc4c3C3CCCCCCC3C2C(=O)N1c1ccccc1 (centres undefined)		70.2 µM	14.9	> 100 µM		> 100	43.7	68.3	28.6 µM	> 100										
CCc1ccc(/C=C\c2cc(OC)c(OC)c(OC)c2)cc1	0.66 µM and 0.203 µM	0.338 µM and 0.114 µM		0.527 µM and 0.121 µM	0.464 µM and 1.18 µM	46.9	> 100		0.134 µM and 0.0499 µM	> 100	0.0258	0.039			0.0187	0.06	0.0395	0.0373	0.0212	0.0521
COc1ccc(-c2cnnc3c(-c4cccc(C(F)(F)F)c4)cnn23)cc1	79.8 µM	> 100 µM	> 100		> 100 µM	7.4	> 100	> 100	> 100 µM	> 100	1.43	4.26	3.61		3.46	1.78	3.14	2.72	> 100	3.41
COc1ccc(NC2=CC(=O)C(=O)c3ccccc32)nn1	4.32 µM	6.2 µM	12.4	3.54 µM		6.95	2.3	5.34	3.21 µM	9.82										
Cc1cccc(C)c1NC(=O)C(=O)C1C(=O)NC(=O)NC1=O		> 100 µM	> 100	> 100 µM	> 100 µM	> 100	> 100	> 100	> 100 µM	> 100										
Cc1cc2c(cc1C)[n+](=O)c(C(=O)C/C(=N/NC(=O)CC#N)C(=O)Nc1ccccc1C(F)(F)F)c(C)n2[O-]	92.3 µM	> 100 µM	> 100	> 100 µM	> 100 µM	> 100	> 100		> 100 µM	> 100										
O=C1CCC(=O)N2CCCCN12	> 100 µM	> 100 µM	> 100	> 100 µM	> 100 µM	> 100	> 100		> 100 µM	> 100										
CCC[CH2][Sn]1([CH2]CCC)[O]Cc2nc(C)ccc2[O]1	8.8 µM	4.79 µM	16.7	29.1 µM	24.5 µM		22.4	6.87	15.9 µM	18.2	3.32	1.84	4.73	12.8	12.1		10.6	1.99	4.38	4.36
CS(=O)(=O)c1ccc([C@H]2O[C@@H](CO)C[C@]2(O)c2ccc(S(C)(=O)=O)cc2)cc1		> 100 µM	> 100	> 100 µM	> 100 µM	> 100	> 100	> 100	> 100 µM	> 100		> 100	> 100	> 100	> 100	> 100	> 100	> 100	> 100	> 100
Nc1nc(Cl)c2ncn(Cc3ccc(C45CC6CC(CC(C6)C4)C5)c(O)c3)c2n1	48.3 µM		12.9	46.7 µM	3.15 µM	21.4	25.9		27.8 µM	21.8	16		3.09	4.04	1.1	5.34	10.6		5.43	2.99
O=C(/N=N/C(=O)OCc1ccccc1)OCc1ccccc1	> 100 µM	> 100 µM	> 100	> 100 µM	> 100 µM	> 100		> 100	> 100 µM	> 100										
CCC(C)c1c(Cl)nc(Cl)nc1Cl (centres undefined)	> 100 µM	15.5 µM	15.4	24.1 µM	17.9 µM	> 100	22.5	> 100		48.8										
CCC[CH2][Sn]([CH2]CCC)([O]C(=O)c1cccnc1SC)[O]C(=O)c1cccnc1SC	1.39 µM	2.1 µM	1.84	3.22 µM	2.32 µM	2.01	2.02		2.33 µM	2.22	0.311	0.771	0.596	1.61	1.12	0.65	0.722		1.09	1.04
